Several values for one entry are separate records, joined by “and”; a condition that tells them apart may be missing. Equal values may be shown once.
Molecular target: human GOAT (ghrelin O-acyl transferase) (Homo sapiens (Human), UniProt Q96T53)
Experiment: Determination of hGOAT activity in HEK293 cells after incubation with test compound (acyl-ghrelin ELISA)
Type: cell-based
Conditions: HEK293 cells stably transfected with preproghrelin and human GOAT cDNA; octanoate-BSA 100 μM; 5 hours incubation; acyl-ghrelin in medium by ELISA; 8 compound concentrations
Experimental: Determination of hGOAT Activity in HEK293 Cells after incubation with test compound
HEK293 cells stably transfected with two expression vectors, one coding for preproghrelin cDNA and a second for the expression of human GOATcDNA are used as a cellular model. After feeding the cells with octanoic acid for 5 hours, acyl-ghrelin is measured in cell culture medium by an ELISA procedure.
Cellline: Hek293 hGOAT/PPGhrl Clone #1B8Sodium octanoate, Sigma, Cat.-No. C5038
BSA: Sigma, Cat.-No. A8806
BD Poly-D-Lysin 384-well Plates, black-clear polystyrene BD Bioscience Cat.-No. […] ELISA human acylated Ghrelin Kit purchased from Bertin Pharman (detailed composition of buffers e.g. wash-puffer, ELISA buffer not known)
All further reagents used were of highest analytical grade available.
Cells are plated with a density of 5000 cells/well in 384-well poly-D-lysin plates and incubated for 1 day at 37° C., 5% CO2 in DMEM medium, 10% FCS, 1×NEAA, Puromycin (0.5 μg/ml) and G418 (1 mg/ml). Then the medium is changed to a identical medium without FCS and containing Octanoate-BSA (final concentration 100 μM each) and compound in DMSO (final DMSO concentration 0.3%). After incubation for 5 hours acylghrelin in the medium is measured by ELISA.
The medium sample is diluted 1:25 in Elisa buffer, a 25 μl aliquot is transferred to a 384-well ELISA plate previously washed 4 times with 100 μL wash buffer, and 25 μl tracer-solution is added. After incubation overnight (˜20 h) at 4° C. temperature the plate is washed 4 times with 100 μl wash-buffer per well. Finally 50 μl Ellman's reagent is added to each well and the plate is incubated in the dark for 20 minutes. The absorbance is measured at 405 nm in an Envision multilabel reader and the amount of acylated ghrelin is calculated according to a acylated ghrelin standard curve provided in the same plate.
The analysis of the data is performed by calculation of the percentage of acyl-ghrelin produced in the presence of test compound compared to the amount of acyl-ghrelin produced in the vehicle control samples. An inhibitor of the GOAT enzyme will give values between 100% CTL (no inhibition) and 0% CTL (complete inhibition).
IC50 values are calculated with Assay Explorer or other suited software based on curve fitting of results of 8 different compound concentrations.

Chain of human GOAT (ghrelin O-acyl transferase) (Q96T53 whole entry): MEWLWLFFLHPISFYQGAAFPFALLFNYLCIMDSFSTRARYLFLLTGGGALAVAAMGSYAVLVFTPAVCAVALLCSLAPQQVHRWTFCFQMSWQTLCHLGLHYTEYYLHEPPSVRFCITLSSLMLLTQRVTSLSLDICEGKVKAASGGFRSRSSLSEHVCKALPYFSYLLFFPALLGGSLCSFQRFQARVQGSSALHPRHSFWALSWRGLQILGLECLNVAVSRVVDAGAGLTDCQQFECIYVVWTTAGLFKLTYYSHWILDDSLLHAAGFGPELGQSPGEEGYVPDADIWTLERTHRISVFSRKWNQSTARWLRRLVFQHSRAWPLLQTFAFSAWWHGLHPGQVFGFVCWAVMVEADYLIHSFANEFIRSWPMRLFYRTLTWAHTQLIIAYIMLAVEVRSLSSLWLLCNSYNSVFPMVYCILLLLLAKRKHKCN

**Q.** How did the IC50 turn out when `Cc1nc2ncnn2c(N)c1Cc1ccc(Br)c(OCC(C)(F)F)n1` [Example 1.1, 6-{[5-Bromo-6-(2,2-difluoropropoxy)pyridin-2-yl]methyl}-5-methyl-[1,2,4]triazolo[1,5-a]pyrimidin-7-amine] was run?
**A.** Its IC50 is 0.31 nM.

**Q.** For `Cc1nc2ncnn2c(N)c1Cc1ccc(OC(F)F)c(Br)c1` [Example 1.2], which IC50 is on record?
**A.** The IC50 was 2 nM.

**Q.** How did the IC50 turn out when `Cc1nc2ncnn2c(N)c1Cc1ccc(C(F)(F)F)c(-c2ccco2)n1` [Example 2.1, 6-{[6-(Furan-2-yl)-5-(trifluoromethyl)pyridin-2-yl]methyl}-5-methyl-[1,2,4]triazolo[1,5-a]pyrimidin-7-amine] was run?
**A.** Its IC50 is 0.4 nM.

**Q.** How did the IC50 turn out when `Cc1nc2ncnn2c(N)c1Cc1ccc(C(F)(F)F)c(N2CCOCC2)n1` [Example 3.1, 5-Methyl-6-{[6-(morpholin-4-yl)-5-(trifluoromethyl)pyridin-2-yl]methyl}-[1,2,4]triazolo[1,5-a]pyrimidin-7-amine] was run?
**A.** Its IC50 is 0.65 nM.

**Q.** For `Cc1nc2ncnn2c(N)c1Cc1ccc(C(F)(F)F)c(N2CC(F)(F)C2)n1` [Example 3.3], which IC50 is on record?
**A.** The IC50 was 0.32 nM and 0.76 nM.

**Q.** With `Cc1nc2ncnn2c(N)c1Cc1ccc(C(F)(F)F)c(N)n1` [Example 3.4] as the molecule, how does the IC50 read?
**A.** Its IC50 is 6.5 nM.

**Q.** For `Cc1nc2ncnn2c(N)c1Cc1ccc(OC(F)F)c(Br)n1` [Example 4.1, 6-{[6-Bromo-5-(difluoromethoxy)pyridin-2-yl]methyl}-5-methyl-[1,2,4]triazolo[1,5-a]pyrimidin-7-amine], which IC50 is on record?
**A.** Its IC50 is 0.3 nM.

**Q.** For `COc1nc(C(F)(F)F)ccc1Cc1c(C)nc2ncnn2c1N` [Example 4.2], which IC50 is on record?
**A.** The IC50 was 1.9 nM.

**Q.** `Cc1nc2ncnn2c(N)c1Cc1ccc(C(F)(F)F)c(Br)c1` [Example 4.3] was tested. Which IC50 did it give?
**A.** Its IC50 is 1.1 nM.

**Q.** `Cc1nc2ncnn2c(N)c1Cc1ccc(OC(F)(F)F)c(Br)c1` [Example 4.4, 6-{[3-bromo-4-(trifluoromethoxy)phenyl]methyl}-5-methyl-[1,2,4]triazolo[1,5-a]pyrimidin-7-amine] was tested. Which IC50 did it give?
**A.** The IC50 was 1.1 nM.

**Q.** Which IC50 does the source give for `CCOc1cc(C(F)(F)F)ccc1Cc1c(C)nc2ncnn2c1N` [Example 4.5] here?
**A.** Its IC50 is 2.4 nM.

**Q.** With `Cc1nc2ncnn2c(N)c1Cc1ccc(C(F)(F)F)nc1OC1CCC1` [Example 4.6] as the molecule, how does the IC50 read?
**A.** Its IC50 is 3 nM.

**Q.** For `CCOc1nc(C(F)(F)F)ccc1Cc1c(C)nc2ncnn2c1N` [Example 4.7], which IC50 is on record?
**A.** The IC50 was 2.9 nM.

**Q.** For `Cc1nc2ncnn2c(N)c1Cc1cccc(OC(F)F)n1` [Example 4.8], which IC50 is on record?
**A.** The IC50 was 8.8 nM.

**Q.** How did the IC50 turn out when `Cc1nc2ncnn2c(N)c1Cc1ccc(C(F)F)cc1` [Example 4.9] was run?
**A.** Its IC50 is 9.8 nM.

**Q.** With `Cc1nc2ncnn2c(N)c1Cc1ccc(Br)c(OC(F)F)n1` [Example 5.1, 6-{[5-Bromo-6-(difluoromethoxy)pyridin-2-yl]methyl}-5-methyl-[1,2,4]triazolo[1,5-a]pyrimidin-7-amine] as the molecule, how does the IC50 read?
**A.** The IC50 was 0.13 nM.

**Q.** `Cc1nc2ncnn2c(N)c1Cc1ccc(OC(F)(F)F)cc1` [Example 6.1, 5-methyl-6-{[4-(trifluoromethoxy)phenyl]methyl}-[1,2,4]triazolo[1,5-a]pyrimidin-7-amine] was tested. Which IC50 did it give?
**A.** The IC50 was 3.9 nM.

**Q.** With `COc1cc(C(F)(F)F)ccc1Cc1c(C)nc2ncnn2c1N` [Example 6.2] as the molecule, how does the IC50 read?
**A.** The IC50 was 0.69 nM.

**Q.** How did the IC50 turn out when `Cc1nc2ncnn2c(N)c1Cc1ccc(C(F)(F)F)cc1` [Example 6.3] was run?
**A.** The IC50 was 3.4 nM.

**Q.** Which IC50 does the source give for `Cc1nc2ncnn2c(N)c1Cc1ccc(OC(F)F)cc1` [Example 6.4] here?
**A.** The IC50 was 1.9 nM.

**Q.** `Cc1nc2ncnn2c(N)c1Cc1ccc(SC(F)(F)F)cc1` [Example 6.5, 5-methyl-6-({4-[(trifluoromethyl)sulfanyl]phenyl}methyl)-[1,2,4]triazolo[1,5-a]pyrimidin-7-amine] was tested. Which IC50 did it give?
**A.** The IC50 was 1.7 nM.

**Q.** `Cc1nc2ncnn2c(N)c1Cc1ccc(C#N)c(NCC(F)F)n1` [Example 7.1, 6-({7-amino-5-methyl-[1,2,4]triazolo[1,5-a]pyrimidin-6-yl}methyl)-2-[(2,2-difluoroethyl)amino]pyridine-3-carbonitrile] was tested. Which IC50 did it give?
**A.** The IC50 was 0.37 nM.

**Q.** `COC(=O)c1cc(Cc2c(C)nc3ncnn3c2N)ccc1C(F)(F)F` [Example 7.2] was tested. Which IC50 did it give?
**A.** Its IC50 is 0.57 nM.

**Q.** How did the IC50 turn out when `Cc1nc2ncnn2c(N)c1Cc1ccc(C#N)c(NC2CC(F)(F)C2)n1` [Example 7.3] was run?
**A.** The IC50 was 2.3 nM.

**Q.** How did the IC50 turn out when `Cc1nc2ncnn2c(N)c1Cc1ccc(C#N)c(OCC(C)(F)F)n1` [Example 7.4] was run?
**A.** Its IC50 is 1.3 nM.

**Q.** Which IC50 does the source give for `COc1cc(Cc2c(C)nc3ncnn3c2N)ccc1C(F)(F)F` [Example 7.5] here?
**A.** The IC50 was 0.92 nM.

**Q.** For `Cc1nc2ncnn2c(N)c1Cc1ccc(C#N)c(NCC(F)(F)F)n1` [Example 7.6], which IC50 is on record?
**A.** Its IC50 is 0.69 nM.

**Q.** `Cc1nc2ncnn2c(N)c1Cc1ccc(C#N)c(NCCC(F)F)n1` [Example 7.7] was tested. Which IC50 did it give?
**A.** Its IC50 is 0.93 nM.

**Q.** For `Cc1nc2ncnn2c(N)c1Cc1ccc(C#N)c(NCCF)n1` [Example 7.8], which IC50 is on record?
**A.** The IC50 was 1.1 nM.

**Q.** Which IC50 does the source give for `Cc1nc2ncnn2c(N)c1Cc1ccc(C#N)c(NCCCF)n1` [Example 7.9] here?
**A.** Its IC50 is 1.3 nM.

**Q.** Which IC50 does the source give for `Cc1nc2ncnn2c(N)c1Cc1ccc(C#N)c(NCC2CC2(F)F)n1` (stereo not shown) [Example 7.10] here?
**A.** The IC50 was 6.2 nM.

**Q.** Which IC50 does the source give for `Cc1nc2ncnn2c(N)c1Cc1ccc(Br)c(OCCCF)n1` [Example 8.1, 6-{[5-Bromo-6-(3-fluoropropoxy)pyridin-2-yl]methyl}-5-methyl-[1,2,4]triazolo[1,5-a]pyrimidin-7-amine] here?
**A.** Its IC50 is 0.27 nM.

**Q.** How did the IC50 turn out when `Cc1nc2ncnn2c(N)c1Cc1ccc(Br)c(NCC(F)(F)F)n1` [Example 8.2] was run?
**A.** The IC50 was 0.23 nM.

**Q.** Which IC50 does the source give for `Cc1nc2ncnn2c(N)c1Cc1ccc(Br)c(OCCF)n1` [Example 8.3] here?
**A.** The IC50 was 0.3 nM.

**Q.** How did the IC50 turn out when `Cc1nc2ncnn2c(N)c1Cc1ccc(Br)c(OCC(F)F)n1` [Example 8.4] was run?
**A.** The IC50 was 0.3 nM.

**Q.** `Cc1nc2ncnn2c(N)c1Cc1ccc(C#N)c(OCC(F)F)n1` [Example 9.1, 6-({7-Amino-5-methyl-[1,2,4]triazolo[1,5-a]pyrimidin-6-yl}methyl)-2-(2,2-difluoroethoxy)pyridine-3-carbonitrile] was tested. Which IC50 did it give?
**A.** The IC50 was 2.4 nM.

**Q.** `Cc1nc2ncnn2c(N)c1Cc1ccc(C#N)c(OCC2(C(F)(F)F)CC2)n1` [Example 9.2] was tested. Which IC50 did it give?
**A.** The IC50 was 8.3 nM.

**Q.** For `Cc1nc2ncnn2c(N)c1Cc1ccc(C#N)c(OCCCF)n1` [Example 9.3], which IC50 is on record?
**A.** The IC50 was 0.56 nM.

**Q.** With `Cc1nc2ncnn2c(N)c1Cc1ccc(C#N)c(OCCF)n1` [Example 9.4] as the molecule, how does the IC50 read?
**A.** The IC50 was 3.7 nM.

**Q.** Which IC50 does the source give for `Cc1nc2ncnn2c(N)c1Cc1ccc(C#N)c(OCC(F)(F)F)n1` [Example 9.5] here?
**A.** The IC50 was 3.9 nM.

**Q.** `Cc1nc2ncnn2c(N)c1Cc1ccc(Br)c(-n2cc(F)cn2)n1` [Example 10.1, 6-{[5-Bromo-6-(4-fluoro-1H-pyrazol-1-yl)pyridin-2-yl]methyl}-5-methyl-[1,2,4]triazolo[1,5-a]pyrimidin-7-amine] was tested. Which IC50 did it give?
**A.** The IC50 was 0.68 nM.

**Q.** With `Cc1nc2ncnn2c(N)c1Cc1ccc(Br)c(-n2ccc(C(F)(F)F)n2)n1` [Example 10.2] as the molecule, how does the IC50 read?
**A.** Its IC50 is 2.8 nM.

**Q.** Which IC50 does the source give for `Cc1nc2ncnn2c(N)c1Cc1ccc(Br)c(-n2cc(C(F)(F)F)cn2)n1` [Example 10.3] here?
**A.** The IC50 was 8.6 nM.

**Q.** `Cc1nc2ncnn2c(N)c1Cc1ccc(OC(F)(F)F)c(N=S(C)(C)=O)c1` [Example 11.1, {[5-({7-Amino-5-methyl-[1,2,4]triazolo[1,5-a]pyrimidin-6-yl}methyl)-2-(trifluoromethoxy)phenyl]imino}dimethyl-λ6-sulfanone] was tested. Which IC50 did it give?
**A.** The IC50 was 0.95 nM.

**Q.** With `Cc1nc2ncnn2c(N)c1Cc1ccc(OC(F)(F)F)c(N=S2(=O)CCC2)c1` [Example 11.2] as the molecule, how does the IC50 read?
**A.** The IC50 was 0.68 nM.

**Q.** How did the IC50 turn out when `Cc1nc2ncnn2c(N)c1Cc1ccc(OC(F)F)c(C#N)n1` [Example 12.1, 6-({7-Amino-5-methyl-[1,2,4]triazolo[1,5-a]pyrimidin-6-yl}methyl)-3-(difluoromethoxy)pyridine-2-carbonitrile] was run?
**A.** The IC50 was 4.4 nM.

Reference: patent publication US11583532B2, “Triazolopyrimidine derivatives for use as ghrelin o-acyl transferase (GOAT) inhibitors” (Boehringer Ingelheim International GmbH, priority 2018, dated 2023)
